Assay results: ChEMBL document CHEMBL4321885, “Biomimetic Macrocyclic Inhibitors of Human Cathepsin D: Structure-Activity Relationship and Binding Mode Analysis” (J Med Chem, 2020)
Active and inactive are the calls of the source. No cut-off for these calls is given here. Non-standard residues stand in square brackets, D forms with d. Residues, ends and D or L forms follow the SMILES beside them. *: point of attachment. Sta = CC(C)C[C@H](N)[C@@H](O)CC(=O)O; Isovaleryl = CC(C)CC(=O)*

Legend:
Cathepsin D = Cathepsin D (Homo sapiens, UniProt P07339); experiment: Inhibition of human placenta CatD using Abz-Lys-Pro-Ala-Glu-Phe-Nph-Ala-Leu as substrate preincubated for 10 mins followed by substrate addition and measured by FRET assay
Renin (Homo sapiens) [1] = target: T1, Renin (Homo sapiens) (UniProt P00797); experiment: Inhibition of recombinant human N-terminal FLAG-tagged renin (67 to 406 residues) expressed in HEK cells at 50 nM using Arg-Glu(EDANS)-Ile-His-Pro-Phe-His-Leu-Val-Ile-His-Thr-Lys(Dabcyl)-Arg as substrate preincubated for 10 mins followed by substrate addition and measured by FRET assay
T1 sequence (whole entry): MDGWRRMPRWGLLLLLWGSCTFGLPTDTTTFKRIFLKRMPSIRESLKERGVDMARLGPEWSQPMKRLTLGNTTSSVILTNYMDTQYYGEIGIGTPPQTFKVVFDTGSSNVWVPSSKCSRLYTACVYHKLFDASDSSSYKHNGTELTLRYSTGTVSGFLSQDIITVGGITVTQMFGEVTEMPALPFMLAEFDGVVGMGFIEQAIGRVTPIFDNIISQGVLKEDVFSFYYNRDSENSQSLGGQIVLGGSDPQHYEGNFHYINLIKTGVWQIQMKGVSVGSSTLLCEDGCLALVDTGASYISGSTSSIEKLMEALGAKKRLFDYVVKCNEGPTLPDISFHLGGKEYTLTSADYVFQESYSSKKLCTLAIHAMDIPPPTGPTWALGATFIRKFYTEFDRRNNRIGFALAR

[2] = target: Beta-secretase 1 (Homo sapiens) (UniProt P56817); experiment: Inhibition of recombinant human C-terminal 10His-tagged BACE1 expressed in mouse NS0 cells at 50 nM using Mca-Ser-Glu-Val-Asn-Leu-Asp-Ala-Glu-Phe-Arg-Lys(Dnp)-Arg-Arg as substrate preincubated for 10 mins followed by substrate addition and measured by FRET assay
[3] = target: Protease (Human immunodeficiency virus 1) (UniProt Q9YQ12); experiment: Inhibition of HIV1 protease at 50 nM using Abz-Tyr-Ile-Nle-Nph-Gln-Arg as substrate preincubated for 10 mins followed by substrate addition and measured by FRET assay
Ixodes ricinus = experiment: Inhibition of Ixodes ricinus CatD expressed in Escherichia coli BL21(DE3) at 50 nM using Abz-Lys-Pro-Ala-Glu-Phe-Nph-Ala-Leu as substrate preincubated for 10 mins followed by substrate addition and measured by FRET assay
[4] = target: Saccharopepsin (Saccharomyces cerevisiae S288c) (UniProt P07267); experiment: Inhibition of Baker's yeast proteinase A at 50 nM using Abz-Lys-Pro-Ala-Glu-Phe-Nph-Ala-Leu as substrate preincubated for 10 mins followed by substrate addition and measured by FRET assay
Renin (Homo sapiens) [5] = target: T1, Renin (Homo sapiens); experiment: Inhibition of recombinant human N-terminal FLAG-tagged renin (67 to 406 residues) expressed in HEK cells at 5 uM using Arg-Glu(EDANS)-Ile-His-Pro-Phe-His-Leu-Val-Ile-His-Thr-Lys(Dabcyl)-Arg as substrate preincubated for 10 mins followed by substrate addition and measured by FRET assay
[6] = target: Beta-secretase 1 (Homo sapiens) (UniProt P56817); experiment: Inhibition of recombinant human C-terminal 10His-tagged BACE1 expressed in mouse NS0 cells at 5 uM using Mca-Ser-Glu-Val-Asn-Leu-Asp-Ala-Glu-Phe-Arg-Lys(Dnp)-Arg-Arg as substrate preincubated for 10 mins followed by substrate addition and measured by FRET assay
[7] = target: Protease (Human immunodeficiency virus 1) (UniProt Q9YQ12); experiment: Inhibition of HIV1 protease at 5 uM using Abz-Tyr-Ile-Nle-Nph-Gln-Arg as substrate preincubated for 10 mins followed by substrate addition and measured by FRET assay

Protease (Human immunodeficiency virus 1), sequence (Q9YQ12 as listed by the source): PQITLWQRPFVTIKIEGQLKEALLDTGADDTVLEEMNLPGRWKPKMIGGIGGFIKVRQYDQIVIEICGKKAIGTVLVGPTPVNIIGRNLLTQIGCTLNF
Cathepsin D, sequence (P07339 65-162 limits assumed): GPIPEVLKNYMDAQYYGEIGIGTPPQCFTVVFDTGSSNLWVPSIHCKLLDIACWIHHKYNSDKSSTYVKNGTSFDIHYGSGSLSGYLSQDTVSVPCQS
Cathepsin D, sequence (P07339 169-412 limits assumed): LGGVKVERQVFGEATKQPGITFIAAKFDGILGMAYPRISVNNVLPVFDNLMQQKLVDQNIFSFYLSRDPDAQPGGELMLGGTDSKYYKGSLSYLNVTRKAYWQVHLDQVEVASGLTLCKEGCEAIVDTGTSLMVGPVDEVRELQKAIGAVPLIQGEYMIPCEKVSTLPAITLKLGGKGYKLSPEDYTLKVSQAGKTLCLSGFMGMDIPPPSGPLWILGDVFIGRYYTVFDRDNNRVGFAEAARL
Beta-secretase 1 (Homo sapiens), sequence (P56817 whole entry): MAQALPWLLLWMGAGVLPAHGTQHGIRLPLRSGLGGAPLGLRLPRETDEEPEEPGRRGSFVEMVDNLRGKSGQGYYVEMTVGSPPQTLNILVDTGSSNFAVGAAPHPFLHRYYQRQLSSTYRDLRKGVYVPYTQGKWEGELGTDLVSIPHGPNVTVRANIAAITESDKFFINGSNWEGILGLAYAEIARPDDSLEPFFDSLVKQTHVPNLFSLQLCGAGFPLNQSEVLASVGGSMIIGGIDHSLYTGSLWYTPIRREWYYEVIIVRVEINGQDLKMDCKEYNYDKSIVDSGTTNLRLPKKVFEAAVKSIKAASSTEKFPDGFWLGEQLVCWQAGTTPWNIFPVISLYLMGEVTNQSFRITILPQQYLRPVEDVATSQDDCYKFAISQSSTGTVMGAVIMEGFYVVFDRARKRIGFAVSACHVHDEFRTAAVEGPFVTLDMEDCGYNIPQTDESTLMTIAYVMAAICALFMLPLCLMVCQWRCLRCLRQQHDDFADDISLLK
Saccharopepsin (Saccharomyces cerevisiae S288c), sequence (P07267 whole entry, the tested form may be a part): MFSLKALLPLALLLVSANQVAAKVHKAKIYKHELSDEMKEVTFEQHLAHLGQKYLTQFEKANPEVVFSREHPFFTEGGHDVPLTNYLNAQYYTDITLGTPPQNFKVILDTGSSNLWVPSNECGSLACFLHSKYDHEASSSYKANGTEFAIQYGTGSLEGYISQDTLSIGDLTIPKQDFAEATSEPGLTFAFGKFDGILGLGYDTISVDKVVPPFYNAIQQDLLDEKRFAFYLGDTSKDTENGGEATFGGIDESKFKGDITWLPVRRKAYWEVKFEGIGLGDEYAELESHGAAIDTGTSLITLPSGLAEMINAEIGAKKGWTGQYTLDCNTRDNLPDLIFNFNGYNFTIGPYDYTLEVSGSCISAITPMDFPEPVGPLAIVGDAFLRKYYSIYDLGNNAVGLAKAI

| SMILES | IC50 (Cathepsin D) [nM] | inhibition (Renin (Homo sapiens) [1]) | inhibition [2] | inhibition [3] | inhibition (Ixodes ricinus) | inhibition [4] | inhibition (Renin (Homo sapiens) [5]) | inhibition [6] | inhibition [7] |
| --- | --- | --- | --- | --- | --- | --- | --- | --- | --- |
| CC(C)[C@@H]1NC(=O)C[C@H](O)[C@H](Cc2cscn2)NC(=O)CCCCCCCCCCCNC1=O | 600 | inactive | inactive | inactive | Active | Active | Active | Active | Active |
| CC(C)[C@@H]1NC(=O)C[C@H](O)[C@H](Cc2ccc(O)cc2)NC(=O)CCCCCCCCCCCNC1=O | 39 | inactive | inactive | inactive | Active | Active | Active | Active | Active |
| CC(C)[C@@H]1NC(=O)C[C@H](O)[C@H](Cc2ccccc2)NC(=O)CCOCCOCCOCCNC1=O | 850 | inactive | inactive | inactive | Active | Active | Active | Active | Active |
| CC(C)C[C@@H]1NC(=O)CCCCCCCCCCCNC(=O)[C@H](C)NC(=O)C[C@@H]1O | 310 | inactive | inactive | inactive | Active | Active | Active | Active | Active |
| CC(C)[C@@H]1NC(=O)C[C@H](O)[C@H](CS)NC(=O)CCCCCCCCCCCNC1=O | 340 | inactive | inactive | inactive | Active | Active | Active | Active | Active |
| CC(C)[C@@H]1NC(=O)NC[C@H](O)[C@H](Cc2ccccc2)NC(=O)CCCCCCCCCCCNC1=O | 21 | inactive | inactive | inactive | Active | Active | Active | Active | Active |
| CC(C)[C@@H]1NC(=O)C[C@H](O)[C@H](Cc2ccc(F)cc2)NC(=O)CCCCCCCCCCCNC1=O | 4.7 | inactive | inactive | inactive | Active | Active | Active | Active | Active |
| CC(C)CC(=O)N[C@H](C(=O)N[C@H](C(=O)N[C@@H](CC(C)C)[C@@H](O)CC(=O)N[C@@H](C)C(=O)O)C(C)C)C(C)C (Isovaleryl-VV[Sta]A-OH) | 40 | – | – | – | – | – | – | – | – |
| CC(C)CC(=O)N[C@H](C(=O)N[C@H](C(=O)N[C@@H](CC(C)C)[C@@H](O)CC(=O)O)C(C)C)C(C)C (Isovaleryl-Val-Val-[Sta]-OH) | 500 | – | – | – | – | – | – | – | – |
| CC(C)[C@@H]1NC(=O)CC[C@H](Cc2ccccc2)NC(=O)CCCCCCCCCCCNC1=O | 2000 | inactive | inactive | inactive | Active | Active | Active | Active | Active |
| C[C@@H](OCc1ccccc1)[C@@H]1NC(=O)C[C@H](O)[C@H](Cc2ccccc2)NC(=O)CCCCCCCCCCCNC1=O | 560 | inactive | inactive | inactive | Active | Active | Active | Active | Active |
| CC(C)[C@@H]1NC(=O)C[C@H](O)[C@H](Cc2ccc(OCc3ccccc3)cc2)NC(=O)CCCCCCCCCCCNC1=O | 55 | inactive | inactive | inactive | Active | Active | Active | Active | Active |
| CC(C)[C@@H]1NC(=O)C[C@H](O)[C@H](Cc2ccc3ccccc3c2)NC(=O)CCCCCCCCCCCNC1=O | 0.6 | inactive | inactive | inactive | Active | Active | Active | Active | Active |
| CC(C)CC(=O)N[C@@H](CC(C)C)[C@@H](O)CC(=O)N[C@@H](C)C(=O)N[C@@H](CC(C)C)[C@@H](O)CC(=O)O | 2500 | – | – | – | – | – | – | – | – |
| CC(C)CC(=O)N[C@@H](CC(C)C)[C@@H](O)CC(=O)N[C@@H](C)C(=O)O | > 200000 | – | – | – | – | – | – | – | – |

The next lines start with the values.

| IC50 (Cathepsin D) [nM] | inhibition (Renin (Homo sapiens) [1]) | inhibition [2] | inhibition [3] | inhibition (Ixodes ricinus) | inhibition [4] | inhibition (Renin (Homo sapiens) [5]) | inhibition [6] | inhibition [7] | SMILES |
| --- | --- | --- | --- | --- | --- | --- | --- | --- | --- |
| 500 | inactive | inactive | inactive | Active | Active | Active | Active | Active | C[C@@H](O)[C@@H]1NC(=O)C[C@H](O)[C@H](Cc2ccccc2)NC(=O)CCCCCCCCCCCNC1=O |
| 68 | inactive | inactive | inactive | Active | Active | Active | Active | Active | C[C@@H]1NC(=O)C[C@H](O)[C@H](Cc2ccccc2)NC(=O)CCCCCCCCCCCNC1=O |
| 5.8 | inactive | inactive | inactive | Active | Active | Active | Active | Active | CC(C)[C@@H]1NC(=O)C[C@H](O)[C@H](Cc2ccccc2)NC(=O)CCCCCCCCCCCNC1=O |
| 8.2 | inactive | inactive | inactive | Active | Active | Active | Active | Active | O=C1C[C@H](O)[C@H](Cc2ccccc2)NC(=O)CCCCCCCCCCCNC(=O)[C@H](C2CCCCC2)N1 |
| 3.5 | inactive | inactive | inactive | Active | Active | Active | Active | Active | CC(C)[C@@H]1NC(=O)C[C@H](O)[C@H](Cc2ccccc2)NC(=O)CCCCCCCCCCCCNC1=O |
| 40 | inactive | inactive | inactive | Active | Active | Active | Active | Active | CC(C)[C@@H]1NC(=O)C[C@H](O)[C@H](Cc2ccccc2)NC(=O)CCCCCCCCCCNC1=O |
| 32 | inactive | inactive | inactive | Active | Active | Active | Active | Active | CC(C)[C@@H]1NC(=O)C[C@H](O)[C@H](Cc2ccccc2)NC(=O)CCCCCCCCCCCCCCNC1=O |
